Our source for the IC50 values is patent publication US20120029190A1, “COMPOUNDS FOR TREATING DISORDERS MEDIATED BY METABOTROPIC GLUTAMATE RECEPTOR 5, AND METHODS OF USE THEREOF” (priority 2009, published 2012).

The target of the assay is T1, human recombinant mGluR5 receptor (Homo sapiens, UniProt P41594).
T1 construct: expressed in transfected cells; expression induced with doxycycline
The assay can be described thus: mGluR5 in vitro functional assay (aequorin cell line, inhibition of glutamate EC80 response). The assay is classed as cell-based. As to conditions: aequorin cell line expressing human mGluR5, reference agonist glutamate at EC80, obtained in duplicate, read-out: IC50. As for the experimental part: B. mGluR5 In Vitro Functional Assay
The functional assay utilized an aequorin cell line expressing human recombinant mGluR5 receptor, an inducible cell line that expresses the human receptor under the control of a promoter induced by doxycycline.
mGluR5 cells in mid-log phase, grown 18 hours prior to the test in antibiotic-free media supplemented with doxycycline (600 ng/mL), were detached by gentle flushing with PBS-EDTA ([…]). The cells were recovered by centrifugation and resuspended in assay buffer (HBSS, […], 3 ug/mL glutamate-pyruvate transaminase, […] MEM sodium pyruvate, 0.1% BSA protease-free). Cells were incubated at room temperature for at least 4 hours with Coelenterazine h (Molecular Probes). The cell suspension (60 uL) containing the test compound was mixed with a solution of reference agonist (30 uL) at its EC80, following an incubation of 3 min. after the first injection. The resulting emission of light was recorded using a Hamamatsu Functional Drug Screening System 6000 (FDSS 6000). To standardize the emission of recorded light (determination of the “100% signal’) across plates and across different experiments, some of the wells contained 100 uM digitonin or a saturating concentration (20 mM) of ATP. Plates also contained the reference agonist (glutamate) at a concentration equivalent to the EC80 obtained during assay validation. Percentages of inhibition were calculated on the basis of the activation induced by the reference agonist at a concentration equal to the EC80. Dose-response data were analyzed with XLFit (IDBS) software using nonlinear regression applied to a sigmoidal dose-response model.

The structures appear in SMILES notation. Like-named read-outs stand apart in the source and are kept apart here. Bounds are passed on as bounds.

T1 sequence (P41594 21-1212): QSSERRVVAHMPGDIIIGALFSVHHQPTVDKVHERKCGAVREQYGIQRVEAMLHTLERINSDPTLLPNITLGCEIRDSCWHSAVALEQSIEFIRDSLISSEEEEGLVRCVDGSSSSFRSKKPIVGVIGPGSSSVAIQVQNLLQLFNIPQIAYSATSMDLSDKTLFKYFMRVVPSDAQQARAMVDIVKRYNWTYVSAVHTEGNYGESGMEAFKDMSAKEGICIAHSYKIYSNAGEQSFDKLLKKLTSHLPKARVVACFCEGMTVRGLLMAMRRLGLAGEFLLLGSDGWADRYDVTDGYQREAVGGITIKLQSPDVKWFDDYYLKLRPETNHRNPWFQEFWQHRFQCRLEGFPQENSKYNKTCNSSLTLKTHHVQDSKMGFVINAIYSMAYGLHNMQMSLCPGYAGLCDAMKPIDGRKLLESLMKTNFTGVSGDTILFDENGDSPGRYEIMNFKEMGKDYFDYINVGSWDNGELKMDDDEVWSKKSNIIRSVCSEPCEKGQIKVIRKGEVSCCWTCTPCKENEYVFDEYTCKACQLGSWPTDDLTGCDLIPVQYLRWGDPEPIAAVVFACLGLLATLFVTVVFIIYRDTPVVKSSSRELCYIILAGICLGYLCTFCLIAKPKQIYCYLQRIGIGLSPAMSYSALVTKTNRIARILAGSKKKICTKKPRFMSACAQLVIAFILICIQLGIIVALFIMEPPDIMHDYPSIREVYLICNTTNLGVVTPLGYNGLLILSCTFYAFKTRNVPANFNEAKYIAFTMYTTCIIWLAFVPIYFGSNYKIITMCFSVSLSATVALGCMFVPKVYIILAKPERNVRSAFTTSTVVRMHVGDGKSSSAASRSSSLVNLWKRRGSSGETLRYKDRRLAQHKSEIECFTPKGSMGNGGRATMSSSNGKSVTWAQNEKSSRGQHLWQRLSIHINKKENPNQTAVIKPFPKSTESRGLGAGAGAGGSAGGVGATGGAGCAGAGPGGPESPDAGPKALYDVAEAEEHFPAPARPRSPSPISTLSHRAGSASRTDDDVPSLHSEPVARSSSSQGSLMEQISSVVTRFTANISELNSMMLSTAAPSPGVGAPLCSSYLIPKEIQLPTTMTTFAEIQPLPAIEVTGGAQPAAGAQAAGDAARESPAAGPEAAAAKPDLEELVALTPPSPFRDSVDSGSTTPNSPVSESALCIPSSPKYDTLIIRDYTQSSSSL

For orientation: IC50 means the concentration needed to halve the response being measured. As for `N#Cc1cc(F)cc(N2CCc3oc(-c4ccc(F)cn4)nc3C2)c1` [Compound 33, 3-Fluoro-5-(2-(5-fluoropyridin-2-yl)-6,7-dihydrooxazolo[4,5-c]pyridin-5(4H)-yl)benzonitrile], the IC50 (Table 1) is < 1000 nM.

For `N#Cc1cc(F)cc(N2CCCc3nc(-c4ccc(F)cn4)oc3C2)c1` [Compound 96, 3-Fluoro-5-(2-(5-fluoropyridin-2-yl)-7,8-dihydro-4H-oxazolo[5,4-c]azepin-5(6H)-yl)benzonitrile], the IC50 (Table 1) is < 1000 nM.

Consider `Oc1ccccc1N1CCc2oc(-c3ccccn3)nc2C1` [Compound 178, 2-(2-(Pyridin-2-yl)-6,7-dihydrooxazolo[4,5-c]pyridin-5(4H)-yl)phenol], for which, where the note is “Table 2”, the IC50 was < 1000 nM.

Turning to `N#Cc1cccnc1N1CCc2oc(-c3cccc(Cl)c3)nc2C1` [Compound 39, 2-(2-(3-Chlorophenyl)-6,7-dihydrooxazolo[4,5-c]pyridin-5(4H)-yl)nicotinonitrile], for the setting “Table 1”, the IC50 is < 1000 nM.

Consider `Clc1ccc(-c2nc3c(o2)CN(c2ccccn2)CC3)cc1` [Compound 70, 2-(4-Chlorophenyl)-5-(pyridin-2-yl)-4,5,6,7-tetrahydrooxazolo[5,4-c]pyridine], for which the IC50 (Table 1) is < 1000 nM.

As to `N#Cc1cc(F)cc(N2CCn3cc(-c4ccccn4)nc3C2)c1` [Compound 109, 3-Fluoro-5-(2(pyridin-2-yl)-5,6-dihydroimidazo-[1,2-a]pyrazin-7(8H)-yl)benzonitrile], the IC50 (Table 1) is < 1000 nM.

`N#Cc1cncc(N2CCc3oc(-c4ccccn4)nc3C2)c1` [Compound 25, 5-(2-(Pyridin-2-yl)-6,7-dihydrooxazolo[4,5-c]pyridin-5(4H)-yl)nicotinonitrile]: the IC50 (Table 1) is < 1000 nM.

Turning to `Clc1cccnc1N1CCc2oc(-c3ccccn3)nc2C1` [Compound 187, 5-(3-Chloropyridin-2-yl)-2-(pyridin-2-yl)-4,5,6,7-tetrahydrooxazolo[4,5-c]pyridine], the IC50 (Table 2) is < 1000 nM.

Consider `CC1CN(c2cc(F)cc(C#N)c2)Cc2oc(-c3ccccn3)nc21` (racemic) [Compound 81, (+/−)-3-Fluoro-5-(7-methyl-2-(pyridin-2-yl)-6,7-dihydrooxazolo[5,4-c]pyridin-5(4H)-yl)benzonitrile], for which the IC50 (Table 1) was < 1000 nM.

In the case of `COC(=O)N1CCc2oc(-c3ccccn3)nc2C1` [Compound 151, Methyl 2-(pyridin-2-yl)-6,7-dihydrooxazolo[4,5-c]pyridine-5(4H)-carboxylate], where the note is “Table 2”, the IC50 is > 10000 nM.

Regarding `Clc1cccc(-c2cn3c(n2)CN(c2ccccn2)CC3)c1` [Compound 107, 2-(3-Chlorophenyl)-7-(pyridin-2-yl)-5,6,7,8-tetrahydroimidazol[1,2-a]pyrazine], under “Table 1”, the IC50 is < 10000 nM.

Turning to `N#Cc1cccc(N2CCCc3nc(-c4ncccn4)oc3C2)c1` [Compound 92, 3-(2-(Pyrimidin-2-yl)-7,8-dihydro-4H-oxazolo[5,4-c]azepin-5(6H)-yl)benzonitrile], the IC50 (Table 1) was < 1000 nM.

Take `N#Cc1cc(F)cc(N2CCCc3oc(-c4ccc(F)cn4)nc3C2)c1` [Compound 135, 3-fluoro-5-(2-(5-fluoropyridin-2-yl)-7,8-dihydro-4H-oxazolo[4,5-c]azepin-5(6H)-yl)benzonitrile]: the IC50 (Table 2) is < 1000 nM.

As to `COc1cccc(-c2nc3c(o2)CN(c2ncccc2C#N)CC3)c1` [Compound 72, 2-(2-(3-Methoxyphenyl)-6,7-dihydrooxazolo[5,4-c]pyridin-5(4H)-yl)nicotinonitrile], the IC50 (Table 1) is < 1000 nM.

Regarding `Fc1ccccc1N1CCc2oc(-c3ccccn3)nc2C1` [Compound 166, 5-(2-Fluorophenyl)-2-(pyridin-2-yl)-4,5,6,7-tetrahydrooxazolo[4,5-c]pyridine], the IC50 (Table 2) was < 1000 nM.

With `N#Cc1cc(F)cc(N2CCCc3oc(-c4ncccn4)nc3C2)c1` [Compound 203, 3-Fluoro-5-(2-(pyrimidin-2-yl)-7,8-dihydro-4H-oxazolo[4,5-c]azepin-5(6H)-yl)benzonitrile], the IC50 (Table 2) was < 1000 nM.

As for `COc1ccccc1N1CCc2oc(-c3ccccn3)nc2C1` [Compound 177, 5-(2-Methoxyphenyl)-2-(pyridin-2-yl)-4,5,6,7-tetrahydrooxazolo[4,5-c]pyridine], the IC50 (Table 2) was < 1000 nM.

In the case of `Cc1cc(-c2nc3c(o2)CCN(c2ccccn2)C3)on1` [Compound 79, 2-(3-Methylisoxazol-5-yl)-5-(pyridin-2-yl)-4,5,6,7-tetrahydrooxazolo[4,5-c]pyridine], under “Table 1”, the IC50 was > 10000 nM.

Turning to `N#Cc1c(F)cccc1N1CCc2oc(-c3ccccn3)nc2C1` [Compound 189, 2-Fluoro-6-(2-(pyridin-2-yl)-6,7-dihydrooxazolo[4,5-c]pyridin-5(4H)-yl)benzonitrile], the IC50 (Table 2) is < 1000 nM.

Take `O=C(c1ccc(F)cc1)N1CCc2oc(-c3ccc(F)cc3)nc2C1` [Compound 54, (4-Fluorophenyl)(2-(4-fluorophenyl)-6,7-dihydrooxazolo[4,5-c]pyridin-5(4H)-yl)methanone]: where the note is “Table 1”, the IC50 is < 10000 nM.

Turning to `N#Cc1cccnc1N1Cc2nc(-c3ccccn3)oc2C1` [Compound 85, 2-(2-(Pyridin-2-yl)-4H-pyrrolo[3,4-d]oxazol-5(6H)-yl)pyridine-3-carbonitrile], for the setting “Table 1”, the IC50 was < 1000 nM.

On to `COc1cccc(-c2nc3c(o2)CCN(c2ncccc2C#N)C3)c1` [Compound 73, 2-(2-(3-Methoxyphenyl)-6,7-dihydrooxazolo[4,5-c]pyridin-5(4H)-yl)nicotinonitrile], for which, under “Table 1”, the IC50 was > 10000 nM.

Regarding `c1ccc(-c2nc3c(o2)CCN(c2ccccn2)C3)nc1` [Compound 27, 2,5-Di(pyridin-2-yl)-4,5,6,7-tetrahydrooxazolo[4,5-c]pyridine], the IC50 (Table 1) was < 1000 nM.

Regarding `COc1cccc(N2CCCc3oc(-c4ccccn4)nc3C2)n1` [Compound 103, 5-(6-Methoxypyridin-2-yl)-2-(pyridin-2-yl)-5,6,7,8-tetrahydro-4H-oxazolo[4,5-c]azepine], the IC50 (Table 1) was < 1000 nM.

On to `N#Cc1cncc(N2CCc3nc(-c4ccccn4)oc3C2)c1` [Compound 8, 5-(2-(Pyridin-2-yl)-6,7-dihydrooxazolo[5,4-c]pyridin-5(4H)-yl)nicotinonitrile], for which the IC50 (Table 1) was < 10000 nM.

For `N#Cc1cccc(N2CCCc3oc(-c4ccccn4)nc3C2)c1` [Compound 99, 3-(2-(Pyridin-2-yl)-7,8-dihydro-4H-oxazolo[4,5-c]azepin-5(6H)-yl)benzonitrile], under “Table 1”, the IC50 is < 1000 nM.

As for `c1ccc(-c2nc3c(o2)CCN(c2cnccn2)C3)cc1` [Compound 49, 2-Phenyl-5-(pyrazin-2-yl)-4,5,6,7-tetrahydrooxazolo[4,5-c]pyridine], the IC50 (Table 1) is < 10000 nM.

Take `N#Cc1cc(F)cc(N2CCc3nc(-c4ccccc4)oc3C2)c1` [Compound 21, 3-Fluoro-5-(2-phenyl-6,7-dihydrooxazolo[5,4-c]pyridin-5(4H)-yl)benzonitrile]: the IC50 (Table 1) was < 1000 nM.

Regarding `N#Cc1cccc(N2CCc3nc(-c4ccccn4)oc3CC2)c1` [Compound 88, 3-(2-(Pyridin-2-yl)-7,8-dihydro-4H-oxazolo[5,4-d]azepin-6(5H)-yl)benzonitrile], the IC50 (Table 1) is < 1000 nM.

For `Fc1cc(-c2ccncc2)cc(N2CCc3nc(-c4ccccn4)oc3C2)c1` [Compound 14, 5-(3-Fluoro-5-(pyridin-4-yl)phenyl)-2-(pyridin-2-yl)-4,5,6,7-tetrahydrooxazolo[5,4-c]pyridine], the half-inhibitory concentration (IC50) (Table 1) was < 10000 nM.

`Cc1ccnc(-c2nc3c(o2)CN(c2cccc(C#N)c2)CC3)c1` [Compound 76, 3-(2-(4-Methylpyridin-2-yl)-6,7-dihydrooxazolo[5,4-c]pyridin-5(4H)-yl)benzonitrile]: under “Table 1”, the IC50 was < 10000 nM.

As to `Clc1cccc(N2CCc3oc(-c4ccncn4)nc3C2)c1` [Compound 120, 5-(3-chlorophenyl)-2-(pyrimidin-4-yl)-4,5,6,7-tetrahydrooxazolo[4,5-c]pyridine], the IC50 (Table 2) is < 10000 nM.

In the case of `Fc1ccc(N2CCCc3oc(-c4ccccn4)nc3C2)cc1F` [Compound 197, 5-(3,4-Difluorophenyl)-2-(pyridin-2-yl)-5,6,7,8-tetrahydro-4H-oxazolo[4,5-c]azepine], the IC50 (Table 2) is < 1000 nM.

Regarding `CC1(C)CN(c2ccc(F)cc2Cl)Cc2nc(-c3ccccn3)oc21` [Compound 196, 5-(2-Chloro-4-fluorophenyl)-7,7-dimethyl-2-(pyridin-2-yl)-4,5,6,7-tetrahydrooxazolo[4,5-c]pyridine], the IC50 (Table 2) was > 10000 nM.

With `Clc1ccc(Cl)c(N2CCc3oc(-c4ccccn4)nc3C2)c1` [Compound 173, 5-(2,5-Dichlorophenyl)-2-(pyridin-2-yl)-4,5,6,7-tetrahydrooxazolo[4,5-c]pyridine], the IC50 (Table 2) is < 1000 nM.

On to `Fc1cc(N2CCc3oc(-c4ccccn4)nc3C2)cc(F)c1F` [Compound 153, 2-(Pyridin-2-yl)-5-(3,4,5-trifluorophenyl)-4,5,6,7-tetrahydrooxazolo[4,5-c]pyridine], for which the IC50 (Table 2) was < 1000 nM.

In the case of `N#Cc1ccc(F)c(N2CCc3oc(-c4ccccn4)nc3C2)c1` [Compound 185, 4-Fluoro-3-(2-(pyridin-2-yl)-6,7-dihydrooxazolo[4,5-c]pyridin-5(4H)-yl)benzonitrile], the IC50 (Table 2) was < 1000 nM.
